Experiment [1] deals with TEAD1 (Homo sapiens, UniProt P28347). Briefly: TR-FRET (Lipid HTRF) TEAD lipid pocket probe displacement assay, TEAD1. Format: binding. Conditions: His-tagged TEAD1, biotinylated lipid pocket probe, 4 hours.
The target in experiment [2] is TEAD3 (Homo sapiens, UniProt Q99594). As to the kind of experiment: TR-FRET (Lipid HTRF) TEAD lipid pocket probe displacement assay, TEAD3. The class given is binding. Particulars: His-tagged TEAD3, biotinylated lipid pocket probe, 4 hours. (TR-FRET usually uses a lanthanide donor and a delayed reading to cut background.)
Experimental: (§1) His-tagged TEAD proteins are pre-incubated with TEAD project compounds for 30 minutes or 4 hours at room temperature. Biotinylated lipid pocket probes are then added to the TEAD/Compound mixture and incubated for 60 minutes at room temperature. The lipid pocket probe competes with the test compound for the TEAD lipid pocket until equilibrium is reached. After 60 minutes, Europium labelled anti-His (Perkin Elmer #AD0110) and XL665 labelled streptavidin (CIS Bio 610SAXAC) are added to the TEAD/test compound/lipid pocket mixture and incubated for 30 minutes or 4 hours. TR-FRET values are then measured using an EnVision multi-label plate reader (Perkin Elmer Cat #2104-001 0A.) If the lipid pocket probe binds to TEAD as expected, a TR-FRET signal results from the proximity of anti-His Eu and XL665. If a TEAD lipid pocket binder such as binds and displaces the lipid pocket probe, the disruption of the TEAD:probe interaction results in a decrease in TR-FRET signal. The potency of compounds as TEAD lipid pocket binders is determined by IC50 value generated using a non-linear 4 parameter curve fit.
In experiment [3] the target is TEAD4 (Homo sapiens, UniProt Q15561). As to the kind of experiment: TR-FRET (Lipid HTRF) TEAD lipid pocket probe displacement assay, TEAD4. The class given is binding. Conditions: His-tagged TEAD4, biotinylated lipid pocket probe, 4 hours.
For experiment [4], the target named is TEAD2 (Homo sapiens, UniProt Q15562). As to the kind of experiment: biochemical.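 Further: TR-FRET competition assay with His-tagged TEAD protein and a biotinylated lipid pocket probe, where probe displacement by compound lowers the signal.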
Experimental: as §1

Broadly, the IC50 is the midpoint of a concentration-inhibition curve. Low readings indicate greater potency in that assay, high ones weaker potency in that assay.

Chain of TEAD4 (Q15561 whole entry, species assumed): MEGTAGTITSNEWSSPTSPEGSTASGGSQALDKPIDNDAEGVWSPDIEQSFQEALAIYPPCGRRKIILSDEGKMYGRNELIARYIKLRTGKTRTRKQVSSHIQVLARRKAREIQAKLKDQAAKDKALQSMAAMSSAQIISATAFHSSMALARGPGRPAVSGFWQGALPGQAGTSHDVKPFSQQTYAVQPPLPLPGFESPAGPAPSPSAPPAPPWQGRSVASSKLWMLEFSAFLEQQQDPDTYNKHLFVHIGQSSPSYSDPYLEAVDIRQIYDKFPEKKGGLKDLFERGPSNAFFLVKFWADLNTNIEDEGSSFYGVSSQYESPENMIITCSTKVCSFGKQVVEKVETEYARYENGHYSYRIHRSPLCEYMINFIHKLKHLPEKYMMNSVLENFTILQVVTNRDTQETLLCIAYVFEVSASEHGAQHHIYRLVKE
Chain of TEAD3 (Q99594 whole entry, species assumed): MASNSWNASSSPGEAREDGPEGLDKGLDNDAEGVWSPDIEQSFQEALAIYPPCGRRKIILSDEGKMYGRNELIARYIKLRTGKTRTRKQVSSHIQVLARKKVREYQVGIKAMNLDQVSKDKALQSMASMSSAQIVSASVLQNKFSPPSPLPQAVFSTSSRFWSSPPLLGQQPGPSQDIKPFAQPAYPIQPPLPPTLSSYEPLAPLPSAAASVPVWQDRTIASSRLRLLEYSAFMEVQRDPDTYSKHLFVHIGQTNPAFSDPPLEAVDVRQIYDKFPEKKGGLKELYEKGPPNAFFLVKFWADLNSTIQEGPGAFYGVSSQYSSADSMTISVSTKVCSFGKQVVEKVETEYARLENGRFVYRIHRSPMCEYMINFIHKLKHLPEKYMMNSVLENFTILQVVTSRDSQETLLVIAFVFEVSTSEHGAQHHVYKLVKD
Chain of TEAD2 (Q15562 whole entry, species assumed): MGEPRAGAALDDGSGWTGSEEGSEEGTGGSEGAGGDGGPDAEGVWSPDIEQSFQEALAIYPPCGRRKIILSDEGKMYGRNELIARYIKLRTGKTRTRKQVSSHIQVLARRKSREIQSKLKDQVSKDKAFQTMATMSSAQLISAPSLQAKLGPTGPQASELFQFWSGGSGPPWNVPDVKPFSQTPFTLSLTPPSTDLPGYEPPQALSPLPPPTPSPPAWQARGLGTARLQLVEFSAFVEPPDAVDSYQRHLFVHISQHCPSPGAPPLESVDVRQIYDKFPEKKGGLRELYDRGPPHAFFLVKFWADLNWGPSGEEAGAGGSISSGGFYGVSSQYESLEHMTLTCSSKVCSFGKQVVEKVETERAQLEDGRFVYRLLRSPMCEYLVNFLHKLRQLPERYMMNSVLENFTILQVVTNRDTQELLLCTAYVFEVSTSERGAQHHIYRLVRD
Chain of TEAD1 (P28347 whole entry, species assumed): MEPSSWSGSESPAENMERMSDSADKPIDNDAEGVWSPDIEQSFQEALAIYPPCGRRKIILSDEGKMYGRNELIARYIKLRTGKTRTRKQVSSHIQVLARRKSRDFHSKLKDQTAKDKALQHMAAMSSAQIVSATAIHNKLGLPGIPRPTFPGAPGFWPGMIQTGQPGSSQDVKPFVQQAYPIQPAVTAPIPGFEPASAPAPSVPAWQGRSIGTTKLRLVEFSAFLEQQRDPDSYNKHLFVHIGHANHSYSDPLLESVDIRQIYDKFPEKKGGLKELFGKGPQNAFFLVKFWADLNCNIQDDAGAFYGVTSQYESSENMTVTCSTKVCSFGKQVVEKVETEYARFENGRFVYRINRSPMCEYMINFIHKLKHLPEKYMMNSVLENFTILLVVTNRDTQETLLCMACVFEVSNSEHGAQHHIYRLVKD

On to `C=CC(=O)N(C)CCc1cc(-c2ccc(OC(F)(F)F)cc2)c2ncn(C)c2c1C#N` [Compound 144, N-(2-(7-Cyano-1-methyl-4-(4-(trifluoromethoxy)phenyl)-1H-benzo[d]imidazol-6-yl)ethyl)-N-methylacrylamide], for which the IC50 was 94 nM in experiment [1], 1300 nM in experiment [2], 23 nM in experiment [3] and 39 nM in experiment [4].
For `C=CC(=O)NCc1cc(-c2ccc(OC(F)(F)F)cc2)c2ncn(C(F)F)c2c1CO` [Compound 39, N-[[3-(difluoromethyl)-4-(hydroxymethyl)-7-[4-(trifluoromethoxy)phenyl]benzimidazol-5-yl]methyl]prop-2-enamide], in that order: 8 nM, 50.5 nM, 24.5 nM and 9 nM.
As to `C=CC(=O)N(CC)Cc1nc(-c2ccc(OC(F)(F)F)cc2)c2ncsc2n1` [Compound 98, N-Ethyl-N-((7-(4-(trifluoromethoxy)phenyl)thiazolo[5,4-d]pyrimidin-5-yl)methyl)acrylamide], the IC50 in experiment [1] was determined as 710 nM; in experiment [2], 680 nM; in experiment [3], 48 nM; in experiment [4], 140 nM.
Regarding `C=CC(=O)NCc1cc(-c2ccc(OC(F)(F)F)cc2)c2ncoc2c1CO` [Compound 113, N-((7-(Hydroxymethyl)-4-(4-(trifluoromethoxy)phenyl)benzo[d]oxazol-6-yl)methyl)acrylamide], the IC50 in experiment [1] turned out to be 24 nM; in experiment [2] it was 44 nM; in experiment [3] it was 31 nM; in experiment [4] it was 24 nM.
With `C=CC(=O)N(C)Cc1cc(-c2ccc(OC(F)(F)F)cc2)c2c(c1CO)CCO2` [Compound 88, N-((4-(Hydroxymethyl)-7-(4-(trifluoromethoxy)phenyl)-2,3-dihydrobenzofuran-5-yl)methyl)-N-methylacrylamide], the concentration for half-maximal inhibition (IC50) in experiment [1] amounted to 4.4 nM; in experiment [2] it was 7.4 nM; in experiment [3] it was 3.1 nM; in experiment [4], 6.7 nM.
For the molecule `C=CC(=O)N(C)Cc1nc(-c2ccc(OC(F)(F)F)cc2)c2ncsc2n1` [Compound 11, N-methyl-N-[[7-[4-(trifluoromethoxy)phenyl]thiazolo[5,4-d]pyrimidin-5-yl]methyl]prop-2-enamide], the concentration for half-maximal inhibition (IC50) turned out to be 78 nM in experiment [1], 74 nM in experiment [2], 8.1 nM in experiment [3] and 100 nM in experiment [4].
As for `C=CC(=O)NCc1cc(-c2ccc(S(F)(F)(F)(F)F)cc2)c2c(c1CO)CCO2` [Compound 24, N-((4-(Hydroxymethyl)-7-(4-(pentafluoro-16-sulfaneyl)phenyl)-2,3-dihydrobenzofuran-5-yl)methyl)acrylamide], the IC50 is 32 nM in experiment [1], 39 nM in experiment [2], 27 nM in experiment [3] and 120 nM in experiment [4].
`CN(Cc1cc(-c2ccc(OC(F)(F)F)cc2)c2ncn(C)c2c1CO)C(=O)/C=C/CO` [Compound 64, (E)-4-hydroxy-N-[[4-(hydroxymethyl)-3-methyl-7-[4-(trifluoromethoxy)phenyl]benzimidazol-5-yl]methyl]-N-methyl-but-2-enamide]: the IC50 in experiment [1] worked out at 270 nM; in experiment [2], 700 nM; in experiment [3] it was 44 nM; in experiment [4] it was 510 nM.
For the molecule `C=CC(=O)NCc1cc(-c2ccc(OC(F)(F)F)cc2)c2c(c1[C@@H](O)CC#N)CCO2` (single isomer, unassigned) [Compound 92], the IC50 was found to be 760 nM in experiment [1], 1600 nM in experiment [2], 340 nM in experiment [3] and 16 nM in experiment [4].
The like results for `C=CC(=O)NCc1cc(-c2ccc(OC(F)(F)F)cc2)c2nccn2c1CC` [Compound 26, N-((5-ethyl-8-(4-(trifluoromethoxy)phenyl)imidazo[1,2-a]pyridin-6-yl)methyl)acrylamide] were, in that order, 140 nM, 510 nM, 180 nM and 62 nM.
Take `C=CC(=O)NCc1nc2c(c(-c3ccc(OC(F)(F)F)cc3)n1)OCC2` [Compound 13, N-[[4-[4-(trifluoromethoxy)phenyl]-6,7-dihydrofuro[3,2-d]pyrimidin-2-yl]methyl]prop-2-enamide]: the IC50 in experiment [1] turned out to be 86 nM; in experiment [2] it was 170 nM; in experiment [3] it was 35 nM; in experiment [4] it was 320 nM.
In the case of `C=CC(=O)NCc1cc(-c2ccc(OC(F)(F)F)cc2)c2ncn(C)c2c1C(F)F` [Compound 77, N-[[4-(difluoromethyl)-3-methyl-7-[4-(trifluoromethoxy)phenyl]benzimidazol-5-yl]methyl]prop-2-enamide], the IC50 came out at 11 nM in experiment [1], 110 nM in experiment [2], 2.5 nM in experiment [3] and 4 nM in experiment [4].
The like results for `C=CC(=O)NCc1cc(-c2ccc(OC(F)(F)F)cc2)c2ncsc2c1-c1noc(=O)[nH]1` [Compound 104, N-((7-(5-Oxo-4,5-dihydro-1,2,4-oxadiazol-3-yl)-4-(4-(trifluoromethoxy)phenyl)benzo[d]thiazol-6-yl)methyl)acrylamide] were, in that order, 95 nM, 27 nM, 40 nM and 80 nM.
Take `C=C(F)C(=O)NCc1cc(-c2ccc(OC(F)(F)F)cc2)c2ncn(C)c2c1CO` [Compound 63, 2-fluoro-N-[[4-(hydroxymethyl)-3-methyl-7-[4-(trifluoromethoxy)phenyl]benzimidazol-5-yl]methyl]prop-2-enamide]: the IC50 in experiment [1] is 110 nM; in experiment [2], 310 nM; in experiment [3] it was 80 nM; in experiment [4], 76 nM.
`C=CC(=O)NCc1nc(-c2ccc(OC(F)(F)F)cc2)c2occc2n1` [Compound 10, N-[[4-[4-(trifluoromethoxy)phenyl]furo[3,2-d]pyrimidin-2-yl]methyl]prop-2-enamide]: the 50% inhibitory concentration (IC50) in experiment [1] stood at 140 nM; in experiment [2], 410 nM; in experiment [3], 94 nM; in experiment [4], 1300 nM.
For `C=CC(=O)NCc1cc(-c2ccc(OC(F)(F)F)cc2)c2ncn(C)c2c1[C@H](C)O` (single isomer, unassigned) [Compound 33], in that order: 140 nM, 260 nM, 79 nM and 7.8 nM.
With `C=CC(=O)NCc1cc(-c2ccc(OC(F)(F)F)cc2)c2c(c1[C@@H](O)[C@@H](C)O)CCO2` (single isomer, unassigned) [Compound 90], the half-inhibitory concentration (IC50) in experiment [1] came out at 170 nM; in experiment [2] it was 400 nM; in experiment [3] it was 63 nM; in experiment [4], 29 nM.
The like results for `C=CC(=O)NCc1cc(-c2ccc(OC(F)(F)F)cc2)c2c(c1-n1ccnc1)CCO2` [Compound 23, N-((4-(1H-Imidazol-1-yl)-7-(4-(trifluoromethoxy)phenyl)-2,3-dihydrobenzofuran-5-yl)methyl)acrylamide] were, in that order, 690 nM, 3900 nM, 160 nM and 370 nM.
The like results for `C=CC(=O)NCc1cc(-c2ccc(OC(F)(F)F)cc2)c2nccn2c1` [Compound 37, N-[[8-[4-(trifluoromethoxy)phenyl]imidazo[1,2-a]pyridin-6-yl]methyl]prop-2-enamide] were, in that order, 100 nM, 230 nM, 82 nM and 960 nM.
